These are literature values, as cited in PMC10025373, “Red ginseng dietary fiber promotes probiotic properties of Lactiplantibacillus plantarum and alters bacterial metabolism” (Frontiers in Microbiology, 2023).

Data set [1] deals with actomyosin motor. Further details: method as in Komatsu et al., 2004. The settings on record: ref Komatsu et al., 2004.
Data set [2] concerns Staphylococcus aureus. The settings on record: ref Lens et al., 2016.
Data set [3] has as its system E. coli. The settings on record: ref Lens et al., 2016.

With `CCCCCCO` [Hexanol], the “function of the actomyosin motor” value in data set [1] is on record as “modulates the function of the actomyosin motor”. For the compound `CCCCOC(C)=O` [butyl acetate], the antimicrobial activity result in data set [2] and in data set [3] was “antimicrobial activity” in each case.
